Reference: patent US20180303776A1, “LIPOSOMAL REHYDRATION SALT FORMULATION FOR TREATMENT OF ALCOHOL RELATED DISORDERS” (EINSOF BIOHEALTH LIMITED, priority 2017, published 2018)

Experiments:
IL-1β = IL-1β in frontal cortex and plasma after ethanol intoxication; format: in vivo, rats; settings: OEA pretreatment
Description: (§1) There now follows examples of treatment of ethanol intoxication and using OEA as Example 10. Rats received an initial dose of 5 g/kg of 30% (w/v) ethanol via oral probe and a maximum of 3 g/kg of ethanol in subsequent doses every 8 hours. Blood was collected from the tail vein 2 hours before and 2 hours after 15:00 hours of ethanol administration by gavage on days 2 to 4 in order to determine blood ethanol levels (BEL), and treated of keeping toxic ethanol doses BEL relatively constant (see the table below). Mean ethanol/rat doses were 8 g/kg, 7.5 g/kg, 7.9 g/kg and 4.9 g/kg, day 1 to 4, respectively, and the mean ethanol/rat/day (1-4) was 7.06 g/kg. In a first experiment, the time-course of the neuro-inflammation was verified after 1 hour, 6 hours and 24 hours from the last feeding forced with ethanol. In the second experiment, OEA (5 mg/kg, ip, 10 mg/kg loading dose) was injected as pretreatment 10 min before each ethanol forced feed, and brain/blood tissue samples were collected 2-4 hours after the last administration of ethanol. […]
(§2) HMGB1 is a dangerous cytokine recruited by alcohol that activates the MyD88-dependent TLR4 immune signaling pathway, inducing the translocation of the p65 subunit of NF-kB to the nucleus and increasing its transcriptional activity. […] Lipid peroxidation, measured by the accumulation of 4-HNE, induces a redox cell state related to activation of caspase 3 and cell death by caspase-mediated apoptosis 8. […]
(§3) Real-time Polymerase Chain Reaction Analysis (RT-PCR) were studied. […] Quantitative changes in mRNA levels were estimated by RT-PCR, carried out in the presence of the SYBR green probe using a […] reaction in a Rotor-Gene (Corbett Research®, Mortlake, NSW, Australia).
(§4) Levels of HMGB1, pro-inflammatory cytokines (TNF-α, IL-1β) and chemokines MCP-1 were studied. Levels of HMGB1, TNF-α, IL-1β and soluble MCP-1 were determined by Enzyme-linked immunosorbent assay (ELISA) 30 (Elabscience Biotechnology Co., Ltd., China, for HMGB-1; RayBiotech®, GA, USA, for the TNF-α, IL-1β and MCP-1). The nuclear/cytosolic HMGB1 fraction was determined by Western blot analysis.

caspase-3 = assay: Caspase-3 expression and activity in frontal cortex; format: in vivo, rats; settings: OEA pretreatment
Description: as §1, §2
(§5) The western blot analysis was studied. […] Autoradiography was quantified by densitometry (NIH ImageJ® software, National Biosciences, Lincoln, Nebr. USA) and expressed as optical density (O.D.). […]
as §3
Measurement of caspase-3 activity was studied. Caspase-3 activity was determined using a fluorometric assay kit (Abnova®, Taiwan) according to the manufacturer's protocol. […]

COX-2 = COX-2 mRNA expression in frontal cortex; format: in vivo, rats; settings: 2-4 hours after last ethanol administration, OEA pretreatment
Description: (§6) There now follows examples of treatment of ethanol intoxication and using OEA as Example 10. Rats received an initial dose of 5 g/kg of 30% (w/v) ethanol via oral probe and a maximum of 3 g/kg of ethanol in subsequent doses every 8 hours. Blood was collected from the tail vein 2 hours before and 2 hours after 15:00 hours of ethanol administration by gavage on days 2 to 4 in order to determine blood ethanol levels (BEL), and treated of keeping toxic ethanol doses BEL relatively constant (see the table below). Mean ethanol/rat doses were 8 g/kg, 7.5 g/kg, 7.9 g/kg and 4.9 g/kg, day 1 to 4, respectively, and the mean ethanol/rat/day (1-4) was 7.06 g/kg. […]
as §2, §3

p65 subunit of NF-kB = assay: NF-κB p65 expression and transcription factor activity in frontal cortex; format: in vivo, rats
Description: as §6, §2
Real-time Polymerase Chain Reaction Analysis (RT-PCR) were studied. […] Quantitative changes in mRNA levels were estimated by RT-PCR, carried out in the presence of the SYBR green probe using a […] reaction in a Rotor-Gene (Corbett Research®, Mortlake, NSW, Australia). […]

iNOS = iNOS mRNA expression in frontal cortex; format: in vivo, rats; settings: OEA pretreatment
Description: as §6, §2, §3

MD2 = MD2 protein expression in frontal cortex after ethanol intoxication; format: in vivo, rats; settings: OEA pretreatment
Description: as §6, with “g/kg. In a first experiment, the time-course of the neuro-inflammation was verified after 1 hour, 6 hours and 24 hours from the last feeding forced with ethanol.” for “g/kg.”
as §2, §5

HMGB1 = HMGB1 expression in frontal cortex after ethanol intoxication; format: in vivo, rats
Description: as §6, with “g/kg. In a first experiment, the time-course of the neuro-inflammation was verified after 1 hour, 6 hours and 24 hours from the last feeding forced with ethanol.” for “g/kg.”
as §2, §5

TNF-α = TNF-α in frontal cortex and plasma after ethanol intoxication; format: in vivo, rats; settings: OEA pretreatment
Description: as §1, §2, §3, §4

corticosterone = assay: Plasma corticosterone levels; format: in vivo, rats
Description: (§7) There now follows examples of treatment of ethanol intoxication and using OEA as Example 10. Rats received an initial dose of 5 g/kg of 30% (w/v) ethanol via oral probe and a maximum of 3 g/kg of ethanol in subsequent doses every 8 hours. Blood was collected from the tail vein 2 hours before and 2 hours after 15:00 hours of ethanol administration by gavage on days 2 to 4 in order to determine blood ethanol levels (BEL), and treated of keeping toxic ethanol doses BEL relatively constant (see the table below). Mean ethanol/rat doses were 8 g/kg, 7.5 g/kg, 7.9 g/kg and 4.9 g/kg, day 1 to 4, respectively, and the mean ethanol/rat/day (1-4) was 7.06 g/kg. In a first experiment, the time-course of the neuro-inflammation was verified after 1 hour, 6 hours and 24 hours from the last feeding forced with ethanol. In the second experiment, OEA (5 mg/kg, ip, 10 mg/kg loading dose) was injected as pretreatment 10 min before each ethanol forced feed, and brain/blood tissue samples were collected 2-4 hours after the last administration of ethanol.
(§8) Experimental design, drug administration and tissue/plasma collection are now discussed. […]
(§9) Plasma levels of corticosterone and LPS were studied. Corticosterone and LPS were measured in plasma using commercially available kits by radioimmunOEAsay (RIA) (Coat-A-Count®, Siemens, La., USA) or colorimetric enzyme reaction (HyCult Biotech, Uden, respectively).

MyD88 = MyD88 protein expression in frontal cortex after ethanol intoxication; format: in vivo, rats; settings: OEA pretreatment
Description: as §6, with “g/kg. In a first experiment, the time-course of the neuro-inflammation was verified after 1 hour, 6 hours and 24 hours from the last feeding forced with ethanol.” for “g/kg.”
as §2, §5

[1] = tested on: rats exposed to ethanol intoxication; assay: Forced swimming test during early ethanol abstinence; format: in vivo; settings: forced swimming test 48 hours after last ethanol administration; OEA pretreatment
Description: (§10) Tests were conducted to determine the effects of repeated OEA administration on depressive and anxiety behavior during early ethanol abstinence. Animals were tested in the cross-raised labyrinth 24 hours and 12 days after the alcohol abuse protocol and forced swimming test was performed 48 hours after the last administration of ethanol. [HMGB1 (High Mobility Group Box 1): high mobility group 1 box; TLR4 (Toll-Like Receptors 4): Receptors type Toll 4: MD2 (Myeloid Differentiation Protein 2): myeloid differentiation protein 2; MyD88 (Myeloid Differentiation Factor 88): myeloid differentiation factor 88; NF-kB (Nuclear Farctor kB): nuclear transcription factor kappa B (p65 subunit); IkB: inhibitory protein IkappaB; TNF-α (Tumor Necrosis Factor α): tumor necrosis factor alpha; IL-1β (Interleukin β): 1interleukin-1 beta; MCP-1 (Monocyte Chemoattractant Protein 1): monocyte chemotactic protein 1; INOS (inducible Nitric Oxide Synthase): inducible nitric oxide synthase; COX-2 (Cyclooxygenase 2): cyclooxygenase 2; 4-HNE (4-hydroxynonenal): 4-hydroxynonenal]. In this third experiment (n=25), the treatment with ethanol intoxication and OEA pretreatment applied in experiment 2 was repeated, and the animals were submitted to the maze test in a high cross 24 hours and 12 days after the last forced ethanol administration and the forced swimming test 48 hours after the ethanol intoxication protocol. Behavioral tests were studied. The forced swimming test was performed on the rats two days after the last forced feed with ethanol and the specific behaviors were recorded with a digital video camera for 5 minutes. These same rats were also tested by the high cross maze test equipped with infrared light (Panlab, Barcelona, Spain) 1 and 12 days after the last forced feed with ethanol, allowing the animals to freely explore the labyrinth during 5 minutes. Tests were performed 3 hours after onset of the dark phase.

IκBα = IκBα mRNA and protein expression in frontal cortex; format: in vivo, rats; settings: OEA pretreatment
Description: as §6, with “g/kg. In a first experiment, the time-course of the neuro-inflammation was verified after 1 hour, 6 hours and 24 hours from the last feeding forced with ethanol.” for “g/kg.”
as §2, §5

caspase-8 = assay: Caspase-8 mRNA expression in frontal cortex; format: in vivo, rats; settings: OEA pretreatment
Description: as §6, §2, §3

[2] = tested on: rats exposed to ethanol intoxication; assay: Elevated cross maze test during ethanol abstinence; format: in vivo
Description: as §10, with “In this third experiment (n=25), the treatment with ethanol intoxication and OEA pretreatment applied in experiment 2 was repeated, and the animals were submitted to the maze test in a high cross 24 hours and 12 days after the last forced ethanol administration and the forced swimming test 48 hours after the ethanol intoxication protocol. Behavioral tests were studied.” left out, “These same rats were also tested by the high cross maze test equipped with infrared light (Panlab, Barcelona, Spain) 1 and 12 days after the last forced feed with ethanol, allowing the animals to freely explore the labyrinth during 5 minutes. Tests were performed 3 hours after onset of the dark phase.” left out

LPS = assay: Plasma LPS levels (intestinal permeability to endotoxins); format: in vivo, rats; settings: pretreated with OEA and receiving ethanol; ethanol alone approximately 80%
Description: as §7, §8, §9

MCP-1 = MCP-1 levels in frontal cortex after ethanol intoxication; format: in vivo, rats; settings: OEA pretreatment
Description: as §6, §2
as §4, with “The nuclear/cytosolic HMGB1 fraction was determined by Western blot analysis.” left out

TLR4 = TLR4 mRNA and protein expression in frontal cortex after ethanol intoxication; format: in vivo, rats; settings: OEA pretreatment
Description: as §6, with “g/kg. In a first experiment, the time-course of the neuro-inflammation was verified after 1 hour, 6 hours and 24 hours from the last feeding forced with ethanol.” for “g/kg.”
as §2, §5

4-HNE = assay: Lipid peroxidation (HNE adduct formation) in frontal cortex; format: in vivo, rats; settings: significant only in the animals treated with ethanol
Description: as §6, §2
Lipid peroxidation was studied. […] Levels of HNE protein adducts in cerebral cortex lysates were measured using a competitive 96-well OxySelect™ adduct HNE ELISA Kit (Cell Biolabs®, San Diego, Calif., US).

With `CCCCCCCC/C=C\CCCCCCCC(=O)NCCO` [OEA, oleoylethanolamide] the “ethanol-induced increase in IL-1β protein levels” value (IL-1β; frontal cortex) was “prevented”, the “ethanol-induced increase of IL-1β mRNA expression” value (IL-1β; frontal cortex) was “did not prevent this effect” and the “ethanol-induced increase of IL-1β” value (IL-1β; plasma) was “prevented”. The “alcohol-induced overexpression of caspase-3 mRNA” value (caspase-3) was “not able to prevent this effect”, the “ethanol-induced increase in caspase-3 activity” value (caspase-3) was “reversed” and the “ethanol-induced overexpression of caspase-3 protein” value (caspase-3) was “prevented”. The “COX-2 mRNA levels” value (COX-2) was “reduced COX-2 mRNA levels with ethanol, but not in the animals treated with vehicle”, the “increase in nuclear activity of p65 induced by ethanol” value (p65 subunit of NF-kB; frontal cortex nuclear extracts, OEA pretreatment) was “counteracted” and the “increase in p65 mRNA levels induced by ethanol” value (p65 subunit of NF-kB; frontal cortex, OEA pre-administration) was “partially prevented”. For the same compound, the “ethanol-induced increase in the expression of iNOS mRNA” value (iNOS) was “completely prevented”, the “increase in MD2 protein induced by ethanol” value (MD2) was “inhibited the increase” and the “increase in HMGB1 induced by ethanol intoxication” value (HMGB1; OEA 5 mg/kg ip 10 min before each ethanol dose) was “prevented”. For the same compound, the “nuclear/cytoplasmic HMGB1 ratio” value (HMGB1; OEA pretreatment + ethanol) was 1.48, the “ethanol-induced increase of TNF-α mRNA expression” value (TNF-α; frontal cortex) was “did not prevent this effect” and the “ethanol-induced increase of TNF-α protein levels” value (TNF-α; frontal cortex) was “not avoided”. The “ethanol-induced increase of TNF-α” value (TNF-α; plasma) was “partially prevented”, the “ethanol-induced increase in plasma corticosterone levels” value (corticosterone; animals exposed to ethanol intoxication, OEA pretreatment) was “completely prevented” and the plasma corticosterone levels (corticosterone; control animals) was “did not modify”. For the same compound, the “increase in ethanol-induced MyD88 protein expression” value (MyD88) was “inhibited the increase”, the alcohol-induced depressive symptoms [1] was “able to prevent alcohol-induced depressive symptoms” and the immobility [1] was “normalizing”. For the same compound, the latency [1] was “normalizing”, the swimming [1] was “normalizing” and the “increase in IκBα mRNA levels induced by ethanol” value (IκBα) was “did not counteract”. The “increase in IκBα protein expression induced by ethanol” value (IκBα) was “did not counteract”, the “ethanol-induced overexpression of caspase-8 mRNA” value (caspase-8) was “reversed this effect” and the “anxiety-type behavior: percentage of entries and time in the open arms” value ([2]; 24 hours after ethanol intoxication) was “clear trend showing a clear anxiolytic effect of OEA in the animals treated with ethanol and control, the Dunn post hoc test found no significant effects in multiple comparisons”. For the same compound, the “anxiety-type behavior: percentage of entrances and time of permanence in the open arms” value ([2]; 12 days after ethanol intoxication) was “not significant”, the LPS plasma levels (LPS) was 44 % increase over control and the “ethanol-induced increase of MCP-1 levels” value (MCP-1) was “prevented this effect”. For the same compound, the “ethanol-induced overexpression of TLR4 mRNA” value (TLR4) was “able to reduce the overexpression”, the “ethanol-induced overexpression of TLR4 protein” value (TLR4) was “able to reduce the overexpression” and the “HNE formation (lipid peroxidation)” value (4-HNE) was “decreased the HNE formation”.
